According to ChEMBL document CHEMBL3885881, “DrugMatrix”:

Organism: Rattus norvegicus
Test: DrugMatrix - Regimen: Daily Repeat
Format: toxicity, organism-based, Sprague-Dawley
Set-up: regimen Daily Repeat, gender Male, age 6-8 weeks
Conditions: in vivo, po, route oral GAVAGE, vehicle 100 % WATER; for ABSOLUTE BASOPHIL / ABSOLUTE EOSINOPHIL / ABSOLUTE LYMPHOCYTE / ABSOLUTE MONOCYTE / ABSOLUTE SEGMENTED NEUTROPHIL / BASOPHIL / EOSINOPHIL / ERYTHROCYTE COUNT / HEMATOCRIT / HEMOGLOBIN / LEUKOCYTE COUNT / LYMPHOCYTE / MEAN CORPUSCULAR HEMOGLOBIN / MEAN CORPUSCULAR HEMOGLOBIN CONCENTRATION / MEAN CORPUSCULAR VOLUME / MONOCYTE / NEUTROPHIL / NUCLEATED RED BLOOD CELLS / PLATELET COUNT: tissue Blood; for ALANINE AMINOTRANSFERASE / ALBUMIN / ALKALINE PHOSPHATASE / ASPARTATE AMINOTRANSFERASE / BLOOD UREA NITROGEN / CARBON DIOXIDE / CHLORIDE / CHOLESTEROL / CREATINE PHOSPHOKINASE / CREATININE / GLUCOSE / LACTATE DEHYDROGENASE / LIPASE / PHOSPHORUS / POTASSIUM / SODIUM / TOTAL BILIRUBIN / TOTAL PROTEIN / URIC ACID: tissue Plasma
[1] = 6 mg/kg, 120 h, dose level Low, time 5 day
[2] = 414 mg/kg, 72 h, dose level High, time 3 day
[3] = 414 mg/kg, 120 h, dose level High, time 5 day

For `CN1CCN(C(=O)OC2c3nccnc3C(=O)N2c2ccc(Cl)cn2)CC1` (centres undefined) [ZOPICLONE], the “ABSOLUTE BASOPHIL” value [1] was 0 CELLS/uL, the “ABSOLUTE EOSINOPHIL” value [1] was 89.67 CELLS/uL and the “ABSOLUTE LYMPHOCYTE” value [1] was 11847.67 CELLS/uL. The “ABSOLUTE MONOCYTE” value [1] was 80.67 CELLS/uL, the “ABSOLUTE SEGMENTED NEUTROPHIL” value [1] was 982 CELLS/uL and the BASOPHIL [1] was 0%. The EOSINOPHIL [1] was 0.67%, the “ERYTHROCYTE COUNT” value [1] was 6 x10E6/uL and the HEMATOCRIT [1] was 36.37%. The HEMOGLOBIN [1] was 14 G/DL, the “LEUKOCYTE COUNT” value [1] was 13 x10E3/uL and the LYMPHOCYTE [1] was 91%. The “MEAN CORPUSCULAR HEMOGLOBIN” value [1] was 23.3 pg, the “MEAN CORPUSCULAR HEMOGLOBIN CONCENTRATION” value [1] was 38.5 G/DL and the “MEAN CORPUSCULAR VOLUME” value [1] was 60.6 fL. For the same molecule, the MONOCYTE [1] was 0.67%, the NEUTROPHIL [1] was 7.67% and the “NUCLEATED RED BLOOD CELLS” value [1] was 0 /100WBC. For the same molecule, the “PLATELET COUNT” value [1] was 827.33 x10E3/uL, the “ALANINE AMINOTRANSFERASE” value [1] was 51.67 u/L and the ALBUMIN [1] was 4.07 G/DL. For the same molecule, the “ALKALINE PHOSPHATASE” value [1] was 386.67 u/L, the “ASPARTATE AMINOTRANSFERASE” value [1] was 91.33 u/L and the “BLOOD UREA NITROGEN” value [1] was 15 mg/dL. For the same molecule, the “CARBON DIOXIDE” value [1] was 32 mmol/L, the CHLORIDE [1] was 101.67 MEQ/L and the CHOLESTEROL [1] was 61.33 mg/dL. The “CREATINE PHOSPHOKINASE” value [1] was 428.33 u/L, the CREATININE [1] was 0.13 mg/dL and the GLUCOSE [1] was 151.33 mg/dL. The “LACTATE DEHYDROGENASE” value [1] was 157.67 u/L, the LIPASE [1] was 10 u/L and the PHOSPHORUS [1] was 12.2 mg/dL. For the same molecule, the POTASSIUM [1] was 6.32 MEQ/L, the SODIUM [1] was 146.2 MEQ/L and the “TOTAL BILIRUBIN” value [1] was 0.17 mg/dL. For the same molecule, the “TOTAL PROTEIN” value [1] was 6.03 G/DL, the “URIC ACID” value [1] was 1.17 mg/dL and the “ABSOLUTE BASOPHIL” value [2] was 0 CELLS/uL. For the same molecule, the “ABSOLUTE EOSINOPHIL” value [2] was 54 CELLS/uL, the “ABSOLUTE LYMPHOCYTE” value [2] was 11865 CELLS/uL and the “ABSOLUTE MONOCYTE” value [2] was 279 CELLS/uL. For the same molecule, the “ABSOLUTE SEGMENTED NEUTROPHIL” value [2] was 4168.67 CELLS/uL, the BASOPHIL [2] was 0% and the EOSINOPHIL [2] was 0.33%. The “ERYTHROCYTE COUNT” value [2] was 5.87 x10E6/uL, the HEMATOCRIT [2] was 36.97% and the HEMOGLOBIN [2] was 14.13 G/DL. The “LEUKOCYTE COUNT” value [2] was 16.37 x10E3/uL, the LYMPHOCYTE [2] was 72.33% and the “MEAN CORPUSCULAR HEMOGLOBIN” value [2] was 24.1 pg. The “MEAN CORPUSCULAR HEMOGLOBIN CONCENTRATION” value [2] was 38.23 G/DL, the “MEAN CORPUSCULAR VOLUME” value [2] was 63.03 fL and the MONOCYTE [2] was 1.67%. The NEUTROPHIL [2] was 25.67%, the “NUCLEATED RED BLOOD CELLS” value [2] was 0 /100WBC and the “PLATELET COUNT” value [2] was 1420.33 x10E3/uL. For the same molecule, the “ALANINE AMINOTRANSFERASE” value [2] was 76 u/L, the ALBUMIN [2] was 3.9 G/DL and the “ALKALINE PHOSPHATASE” value [2] was 416.33 u/L. For the same molecule, the “ASPARTATE AMINOTRANSFERASE” value [2] was 81 u/L, the “BLOOD UREA NITROGEN” value [2] was 15.67 mg/dL and the “CARBON DIOXIDE” value [2] was 31.67 mmol/L. The CHLORIDE [2] was 101.33 MEQ/L, the CHOLESTEROL [2] was 79 mg/dL and the “CREATINE PHOSPHOKINASE” value [2] was 490.67 u/L. The CREATININE [2] was 0.17 mg/dL, the GLUCOSE [2] was 142.33 mg/dL and the “LACTATE DEHYDROGENASE” value [2] was 208 u/L. It also gave an LIPASE [2] of 10.67 u/L, a PHOSPHORUS [2] of 9.37 mg/dL and a POTASSIUM [2] of 5.75 MEQ/L. The SODIUM [2] was 145.07 MEQ/L, the “TOTAL BILIRUBIN” value [2] was 0.13 mg/dL and the “TOTAL PROTEIN” value [2] was 5.97 G/DL. The “URIC ACID” value [2] was 0.43 mg/dL, the “ABSOLUTE BASOPHIL” value [3] was 0 CELLS/uL and the “ABSOLUTE EOSINOPHIL” value [3] was 34 CELLS/uL. The “ABSOLUTE LYMPHOCYTE” value [3] was 13648.67 CELLS/uL, the “ABSOLUTE MONOCYTE” value [3] was 500 CELLS/uL and the “ABSOLUTE SEGMENTED NEUTROPHIL” value [3] was 2484 CELLS/uL. For the same molecule, the BASOPHIL [3] was 0%, the EOSINOPHIL [3] was 0.33% and the “ERYTHROCYTE COUNT” value [3] was 6.38 x10E6/uL. For the same molecule, the HEMATOCRIT [3] was 38.3%, the HEMOGLOBIN [3] was 14.7 G/DL and the “LEUKOCYTE COUNT” value [3] was 16.67 x10E3/uL. The LYMPHOCYTE [3] was 81%, the “MEAN CORPUSCULAR HEMOGLOBIN” value [3] was 23.07 pg and the “MEAN CORPUSCULAR HEMOGLOBIN CONCENTRATION” value [3] was 38.37 G/DL. For the same molecule, the “MEAN CORPUSCULAR VOLUME” value [3] was 60.13 fL, the MONOCYTE [3] was 3% and the NEUTROPHIL [3] was 15.67%. The “NUCLEATED RED BLOOD CELLS” value [3] was 0 /100WBC, the “PLATELET COUNT” value [3] was 1154.67 x10E3/uL and the “ALANINE AMINOTRANSFERASE” value [3] was 76.67 u/L. For the same molecule, the ALBUMIN [3] was 3.57 G/DL, the “ALKALINE PHOSPHATASE” value [3] was 365 u/L and the “ASPARTATE AMINOTRANSFERASE” value [3] was 80.33 u/L. For the same molecule, the “BLOOD UREA NITROGEN” value [3] was 15.33 mg/dL, the “CARBON DIOXIDE” value [3] was 30.33 mmol/L and the CHLORIDE [3] was 102 MEQ/L. The CHOLESTEROL [3] was 68 mg/dL, the “CREATINE PHOSPHOKINASE” value [3] was 261.33 u/L and the CREATININE [3] was 0.22 mg/dL. For the same molecule, the GLUCOSE [3] was 118.67 mg/dL, the “LACTATE DEHYDROGENASE” value [3] was 110.33 u/L and the LIPASE [3] was 11 u/L. The PHOSPHORUS [3] was 11.23 mg/dL, the POTASSIUM [3] was 6.36 MEQ/L and the SODIUM [3] was 146.63 MEQ/L. The “TOTAL BILIRUBIN” value [3] was 0.1 mg/dL, the “TOTAL PROTEIN” value [3] was 5.73 G/DL and the “URIC ACID” value [3] was 1.53 mg/dL.
